The source of these data is patent US20120095019A1 (priority 2010, published 2012).

A word on the Tmax: it is the time from dosing to the highest level. For orientation: AUC(0-t) means the area under the concentration-time curve up to a stated or last time point. By Cmax is commonly meant the maximum level reached in the sampled fluid or tissue.

The structures appear in SMILES notation. “And” between values parts separate entries of the source, which are not always exact repeats. Identical values can stand only once. “Also recorded” adds a separate entry of the source.

Series [1] can be described thus: 3-period crossover study of betrixaban and digoxin alone and in combination for 7 days in healthy subjects. The series is classed as in vivo, human. The source says:
For each period, subjects reported to the clinical research unit on the day prior to Day 1 and remained there until Day 8 (at least until the last blood sample collection). The total duration of the study for each subject was 14 weeks: up to 4 weeks predose, approximately 1 week in the study unit on 3 occasions (with each treatment period separated by an approximate 2-week washout [i.e., 12 to 14 days]), and up to 3 weeks after the last dose until the Termination Visit. Serial blood samples and interval urine collections were obtained over the last dosing interval (Day 7 to 8) during each study period. Routine safety laboratory data was obtained at baseline during and after drug administration; additional safety laboratory and clinical data were collected.
All doses were taken under fasting conditions (no food starting from the midnight before dosing and continuing until 2 hours postdose).
Safety assessments included electrocardiogram (ECG) intervals, vital signs, laboratory parameters, and adverse events (AEs).
Mean and individual concentration-versus-time curves were plotted. […]
The 90% confidence intervals (CIs) for the difference in least squares means (test-reference, where test=drugs in combination and reference=drugs alone) was calculated for each parameter. […]

Series [2] is described as follows: 2-way crossover study of single-dose betrixaban alone and following 5 days of ketoconazole in healthy subjects (plasma/urine PK, safety). Type of series: in vivo, human. The conditions noted are these: for Cmax: ketoconazole Cmax. The source says:
Blood and urine samples were obtained at specific time intervals after dosing for pharmacokinetic evaluations.
For each subject, the total duration of the study was up to 11 weeks (4 weeks predose, 1 week in the study unit on 2 occasions separated by a 12- to 14-day washout period, and 3 weeks after the last dose until the termination visit).
Safety was monitored by adverse event monitoring, clinical laboratory testing (hematology, serum chemistry, and urinalysis), vital sign measurements (oral temperature, respiratory rate, pulse rate, and systolic and diastolic blood pressure), electrocardiograms, and physical examinations.

Take `C[C@H]1O[C@@H](O[C@H]2[C@@H](O)C[C@H](O[C@H]3[C@@H](O)C[C@H](O[C@H]4CC[C@@]5(C)[C@H](CC[C@@H]6[C@@H]5C[C@@H](O)[C@]5(C)[C@@H](C7=CC(=O)OC7)CC[C@]65O)C4)O[C@@H]3C)O[C@@H]2C)C[C@H](O)[C@@H]1O` [digoxin]: in series [1] (7 days), the “effect of co-administration of betrixaban on digoxin PK” value is “no impact; also recorded: no effect”. In addition, the Tmax in series [1] (human, plasma, oral, digoxin median tmax, second value of pair (digoxin alone by order)) came out at 1.01 h.

In the case of `CC(=O)N1CCN(c2ccc(OCC3COC(Cn4ccnc4)(c4ccc(Cl)cc4Cl)O3)cc2)CC1` (stereo not drawn) [ketoconazole], the entries for the “ketoconazole CL/F, mean (SD)” value in series [2] (Day 1) and in series [2] (Day-1) were 5.717 (2.373) L/h and 7.954 (7.110) L/h, respectively. The “ketoconazole trough concentration, least squares geometric mean” value in series [2] (Day 1 12 hours) is given as 769 ng/mL; in series [2] (Day 1 predose), 1030 ng/mL; in series [2] (Day-1 predose), 1250 ng/mL. Also, in series [2] (human, in vivo), the “increased exposure of ketoconazole [Cmax and AUC(0-12)] when given with betrixaban” value is 21-22% and ~20%. The Tmax in series [2] (human, plasma, oral) was determined as 2 h; in series [2] (human, plasma, oral, 200 mg), 2 h. In addition, the AUC(0-t) in series [2] (human, plasma, oral, 200 mg, ketoconazole AUC(0-12), geometric LS mean, Treatment R: ketoconazole 200 mg alone) is 30900 ng·h/mL; in series [2] (human, plasma, oral, 200 mg, ketoconazole plasma AUC(0-12), mean (SD), Day-1) it was 35300 ng·h/mL; in series [2] (human, plasma, oral, ketoconazole AUC(0-12), geometric LS mean, Treatment T: ketoconazole 200 mg co-administered with 40-mg betrixaban), 37300 ng·h/mL. Moreover, the Cmax is 5260 ng/mL in series [2] (human, plasma, oral, 200 mg, geometric LS mean, Treatment R: ketoconazole 200 mg alone); 5900 ng/mL in series [2] (human, plasma, oral, 200 mg, mean (SD), Day-1); 6420 ng/mL in series [2] (human, plasma, oral, geometric LS mean, Treatment T: ketoconazole 200 mg co-administered with 40-mg betrixaban); 6620 ng/mL in series [2] (human, plasma, oral, mean (SD), Day 1 (day of betrixaban administration)). In addition, in series [2] (human, plasma, oral, 200 mg, Day-1 12 hours), the concentration at 12 h came to 697 ng/mL.
